According to patent publication US20230242544A1, “QUINAZOLINE COMPOUNDS, PREPARATION METHODS AND USES THEREOF” (INVENTISBIO CO., LTD., priority 2020, published 2023):

Tests used:
Ba/F3_KRAS^G12D cells = Ba/F3_KRAS^G12D cells (Homo sapiens, UniProt P01116, G12D, cells depend on it); assay: Ba/F3 KRAS G12D cell proliferation assay (CellTiter-Glo); assay type: cell-based; details: treated for 3 days, cell-titer Glo, cell growth inhibition, read-out: BaF3_KRAS^G12D IC50
Method: Ba/F3_KRAS^G12D cells (KYinno, China) were generated by transducing Ba/F3 parental cells with the recombinant KRAS^G12D lentivirus and followed by 1 ug/mL of puromycin selection and IL3 depletion. […] Cells were seeded at a density of 5×10^3 per well into 96-well plate and incubated overnight. Serial diluted compounds were added to each well. Cells were treated with the compounds for 3 days, after which cell-titer Glo reagent (Promega #G7572) was used to assess cell proliferation. The luminescence signal was then collected on Tecan Spark plate reader. […] Cell growth inhibition of IC50 is calculated with the equation of Y=Bottom+(Top−Bottom)/(1+10^((Log IC50−X)*Hill Slope))

[1] = target: recombinant human KRAS^G12D protein (Homo sapiens, UniProt P01116, G12D); assay: Temperature-dependent Fluorescence (TdF) KRAS G12D protein binding assay; details: 6 μM KRAS^G12D protein, 10 μM compound, Sypro Orange; Kd calculated from the fluorescent shift
Method: The Temperature-dependent Fluorescence (TdF) assay was used to analyze binding affinity of compound to recombinant human KRAS^G12D protein. The TdF assay was conducted in the 96-well-based real-time fluorescence plate reader (ABI 7500 or Roche LightCycler 480). Fluorescent dye Sypro Orange (Sigma) was used to monitor the protein folding-unfolding transition. Protein-compound binding was gauged by the shift in the unfolding transition temperature (ΔTm) acquired with and without compound. Each reaction sample consists of 6 μM KRAS^G12D Protein, 10 μM compound, and Sypro Orange dye (in 1% DMSO) in 20 μL reaction buffer (25 mM HEPES pH 7.5, 150 mM NaCl, 10 mM MgCl2). […] Binding affinity (Kd value) was calculated based on the degree of fluorescent shift of the protein with and without compound.

Sequence of Ba/F3_KRAS^G12D cells (P01116 whole entry G12D): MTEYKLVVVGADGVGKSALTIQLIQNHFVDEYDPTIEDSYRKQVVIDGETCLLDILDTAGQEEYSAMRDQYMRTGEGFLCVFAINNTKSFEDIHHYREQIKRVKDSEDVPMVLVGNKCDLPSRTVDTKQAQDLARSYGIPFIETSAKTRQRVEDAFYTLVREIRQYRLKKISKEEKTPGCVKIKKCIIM
Sequence of recombinant human KRAS^G12D protein (P01116 1-188 isoform P01116-2 G12D): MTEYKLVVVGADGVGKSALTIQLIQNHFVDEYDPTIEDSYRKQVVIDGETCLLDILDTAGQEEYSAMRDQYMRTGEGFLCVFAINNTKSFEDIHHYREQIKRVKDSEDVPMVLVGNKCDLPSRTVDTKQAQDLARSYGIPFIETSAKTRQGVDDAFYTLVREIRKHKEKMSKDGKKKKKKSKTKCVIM

GI50 (Ba/F3_KRAS^G12D cells) | Kd [1] | SMILES
< 0.5 µM | < 0.5 µM | Oc1cc(-c2c(Cl)cc3c(N4CC5CCC(C4)N5)nc(OC[C@@]45CCCN4C[C@H](F)C5)nc3c2F)c2c(Cl)c(F)ccc2c1 (single isomer, unassigned) [Compound 138]
< 0.5 µM | < 0.5 µM | Oc1cc(-c2c(Cl)cc3c(N4CC5CCC(C4)N5)nc(OC[C@@]45CCCN4C[C@H](F)C5)nc3c2F)c2c(Cl)c(F)ccc2c1 (single isomer, unassigned) [Compound 139]
< 0.5 µM | < 0.5 µM | C#Cc1c(F)ccc2cc(O)cc(-c3c(Cl)cc4c(N5CC6CCC(C5)N6)nc(OC[C@@]56CCCN5C[C@H](F)C6)nc4c3F)c12 (single isomer, unassigned) [Compound 154]
0.5 to 5 µM | > 5 µM | CN1CCC[C@H]1COc1nc(N2CCNCC2)c2cc(Cl)c(-c3cc(O)cc4ccccc34)c(F)c2n1 [Compound 1]
0.5 to 5 µM | > 5 µM | C[C@H]1CNCCN1c1nc(OC[C@@H]2CCCN2C)nc2c(F)c(-c3cc(O)cc4ccccc34)c(Cl)cc12 [Compound 3]
> 5 µM | 0.5 to 5 µM | CN1CCC[C@H]1COc1nc(N2CC3CCC(C2)N3)c2cc(Cl)c(-c3c(O)cccc3F)c(F)c2n1 [Compound 4]
0.5 to 5 µM | 0.5 to 5 µM | CN(C)CCCOc1nc(N2CC3CCC(C2)N3)c2cc(Cl)c(-c3cc(O)cc4ccccc34)c(F)c2n1 [Compound 5]
0.5 to 5 µM | > 5 µM | CN(C)CCCOc1nc(N2CC3CCC(C2)N3)c2cc(Cl)c(-c3cccc4cccc(Cl)c34)c(F)c2n1 [Compound 6]
0.5 to 5 µM | > 5 µM | CN1CCC[C@H]1COc1nc(N2CC3CCC(C2)N3)c2cc(Cl)c(-c3cccc4cccc(Cl)c34)c(F)c2n1 [Compound 7]
> 5 µM | > 5 µM | CN(C)CCCOc1nc(N2CC3CCC(C2)N3)c2cc(Cl)c(-c3c(O)cccc3F)c(F)c2n1 [Compound 8]
0.5 to 5 µM | 0.5 to 5 µM | CN1CCC[C@H]1COc1nc(N2CC3CCCC(C2)N3)c2cc(Cl)c(-c3cc(O)cc4cccc(Cl)c34)c(F)c2n1 [Compound 11]
> 5 µM | > 5 µM | CN1CCC[C@H]1COc1nc(N2CCNC(CC(N)=O)C2)c2cc(Cl)c(-c3cc(O)cc4ccccc34)c(F)c2n1 (some centres unmarked) [Compound 12]
> 5 µM | > 5 µM | Nc1cccc(F)c1-c1c(Cl)cc2c(N3CCNCC3)nc(OCC34CCCN3CCC4)nc2c1F [Compound 14]
0.5 to 5 µM | > 5 µM | CNC1CCN(c2nc(OC[C@@H]3CCCN3C)nc3c(F)c(-c4cc(O)cc5cccc(Cl)c45)c(Cl)cc23)C1 (some centres unmarked) [Compound 16]
> 5 µM | > 5 µM | CN1CCC[C@H]1COc1nc(N2CC3(CNC3)C2)c2cc(Cl)c(-c3cc(O)cc4cccc(Cl)c34)c(F)c2n1 [Compound 17]
0.5 to 5 µM | > 5 µM | CN1CCC[C@H]1COc1nc(N2CCC3NCC32)c2cc(Cl)c(-c3cc(O)cc4cccc(Cl)c34)c(F)c2n1 (some centres unmarked) [Compound 18]
> 5 µM | > 5 µM | CN1CCC[C@H]1COc1nc(N2CC3(CCNC3)C2)c2cc(Cl)c(-c3cc(O)cc4cccc(Cl)c34)c(F)c2n1 [Compound 19]
0.5 to 5 µM | > 5 µM | C[C@@H]1CN(c2nc(OC[C@@H]3CCCN3C)nc3c(F)c(-c4cc(O)cc5cccc(Cl)c45)c(Cl)cc23)[C@@H](C)CN1 [Compound 21]
0.5 to 5 µM | > 5 µM | C[C@H]1CNCCN1c1nc(OC[C@@H]2CCCN2C)nc2c(F)c(-c3cc(O)cc4cccc(Cl)c34)c(Cl)cc12 [Compound 22]
0.5 to 5 µM | 0.5 to 5 µM | CN1CCC[C@H]1COc1nc(N2CCNCC23CC3)c2cc(Cl)c(-c3cc(O)cc4cccc(Cl)c34)c(F)c2n1 [Compound 23]
0.5 to 5 µM | > 5 µM | CN1CCC[C@H]1COc1nc(N2C[C@H]3NCC[C@H]32)c2cc(Cl)c(-c3cc(O)cc4cccc(Cl)c34)c(F)c2n1 [Compound 25]
0.5 to 5 µM | > 5 µM | CN1CCC[C@H]1COc1nc(N2CC3CCC(C2)N3)c2cc(Cl)c(-c3nc(N)cc4ccccc34)c(F)c2n1 [Compound 27]
< 0.5 µM | > 5 µM | Fc1c(-c2cccc3cccc(Cl)c23)c(Cl)cc2c(N3CCNCC3)nc(OCC34CCCN3CCC4)nc12 [Compound 28]
0.5 to 5 µM | > 5 µM | Oc1cc(-c2c(Cl)cc3c(N4CCNCC4)nc(OCC45CCCN4CCC5)nc3c2F)c2ccccc2c1 [Compound 29]

GI50 (Ba/F3_KRAS^G12D cells) | Kd [1] | SMILES
0.5 to 5 µM | > 5 µM | CN1CCC[C@H]1COc1nc(N2CC3CCC(C2)N3)c2cc(Cl)c(-c3c(N)cccc3F)c(F)c2n1 [Compound 31]
> 5 µM | 0.5 to 5 µM | Nc1cccc(F)c1-c1c(Cl)cc2c(N3CC4CCC(C3)N4)nc(OCC34CCCN3CCC4)nc2c1F [Compound 32]
0.5 to 5 µM | < 0.5 µM | Oc1cc(-c2c(Cl)cc3c(N4C5CCC4CNC5)nc(OCC45CCCN4CCC5)nc3c2F)c2ccccc2c1 [Compound 33]
0.5 to 5 µM | 0.5 to 5 µM | CN1CC(F)(F)CC1COc1nc(N2CC3CCC(C2)N3)c2cc(Cl)c(-c3cc(O)cc4cccc(Cl)c34)c(F)c2n1 (centres unmarked) [Compound 35]
0.5 to 5 µM | > 5 µM | C[C@@H]1CN(c2nc(OCC3CN(C)C3)nc3c(F)c(-c4cc(O)cc5ccccc45)c(Cl)cc23)[C@@H](C)CN1 [Compound 36]
0.5 to 5 µM | > 5 µM | CN(C)C1CN(c2nc(N3CC4CCC(C3)N4)c3cc(Cl)c(-c4cc(O)cc5ccccc45)c(F)c3n2)C1 [Compound 39]
0.5 to 5 µM | > 5 µM | CN1CC2CN(c3nc(N4CC5CCC(C4)N5)c4cc(Cl)c(-c5cc(O)cc6ccccc56)c(F)c4n3)CC2C1 (centres unmarked) [Compound 40]
0.5 to 5 µM | > 5 µM | CN1CCC2(CC1)CCN(c1nc(N3CC4CCC(C3)N4)c3cc(Cl)c(-c4cc(O)cc5ccccc45)c(F)c3n1)C2 [Compound 41]
0.5 to 5 µM | > 5 µM | CN1CCC2CCN(c3nc(N4CC5CCC(C4)N5)c4cc(Cl)c(-c5cc(O)cc6ccccc56)c(F)c4n3)CC21 (centres unmarked) [Compound 42]
0.5 to 5 µM | > 5 µM | CN1CCC2CN(c3nc(N4CC5CCC(C4)N5)c4cc(Cl)c(-c5cc(O)cc6ccccc56)c(F)c4n3)CC2C1 (centres unmarked) [Compound 43]
0.5 to 5 µM | > 5 µM | CN1CCC2(CCN(c3nc(N4CC5CCC(C4)N5)c4cc(Cl)c(-c5cc(O)cc6ccccc56)c(F)c4n3)C2)C1 (centres unmarked) [Compound 44]
0.5 to 5 µM | > 5 µM | CN1CC2(CCN(c3nc(N4CC5CCC(C4)N5)c4cc(Cl)c(-c5cc(O)cc6ccccc56)c(F)c4n3)CC2)C1 [Compound 45]
> 5 µM | 0.5 to 5 µM | Oc1cc(-c2c(Cl)cc3c(N4CC5CCC(C4)N5)nc(OCCN4CCC(O)C4)nc3c2F)c2ccccc2c1 (centres unmarked) [Compound 46]
< 0.5 µM | < 0.5 µM | Cc1cccc2cc(O)cc(-c3c(Cl)cc4c(N5CC6CCC(C5)N6)nc(OC[C@@]56CCCN5C[C@H](F)C6)nc4c3F)c12 [Compound 47]
> 5 µM | > 5 µM | CC(C)N1CC(Nc2nc(N3C[C@@H](C)NC[C@@H]3C)c3cc(Cl)c(-c4cc(O)cc5ccccc45)c(F)c3n2)C1 [Compound 49]
0.5 to 5 µM | 0.5 to 5 µM | CN1CC(COc2nc(N3CC4CCC(C3)N4)c3cc(Cl)c(-c4cc(O)cc5ccccc45)c(F)c3n2)CC(F)(F)C1 (centres unmarked) [Compound 50]
0.5 to 5 µM | > 5 µM | CN(C)CC1CN(c2nc(N3CC4CCC(C3)N4)c3cc(Cl)c(-c4cc(O)cc5ccccc45)c(F)c3n2)C1 [Compound 51]
0.5 to 5 µM | > 5 µM | CN(C)C1CCN(c2nc(N3CC4CCC(C3)N4)c3cc(Cl)c(-c4cc(O)cc5ccccc45)c(F)c3n2)C1 (centres unmarked) [Compound 52]
0.5 to 5 µM | > 5 µM | CN(C)CC1CCN(c2nc(N3CC4CCC(C3)N4)c3cc(Cl)c(-c4cc(O)cc5ccccc45)c(F)c3n2)CC1 [Compound 53]
0.5 to 5 µM | > 5 µM | CN(C)C1CCN(c2nc(N3CC4CCC(C3)N4)c3cc(Cl)c(-c4cc(O)cc5ccccc45)c(F)c3n2)CC1 [Compound 54]
< 0.5 µM | < 0.5 µM | N#Cc1cc2c(N3CC4CCC(C3)N4)nc(OC[C@@]34CCCN3C[C@H](F)C4)nc2c(F)c1-c1cc(O)cc2cccc(Cl)c12 [Compound 55]
0.5 to 5 µM | > 5 µM | CN(C)C1CCCN(c2nc(N3CC4CCC(C3)N4)c3cc(Cl)c(-c4cc(O)cc5ccccc45)c(F)c3n2)C1 (centres unmarked) [Compound 56]
0.5 to 5 µM | > 5 µM | CN1CCOCC1COc1nc(N2CC3CCC(C2)N3)c2cc(Cl)c(-c3cc(O)cc4ccccc34)c(F)c2n1 (centres unmarked) [Compound 57]
< 0.5 µM | < 0.5 µM | Oc1cc(-c2c(Cl)cc3c(N4CC5CCC(C4)N5)nc(OC[C@@]45CCCN4C[C@H](F)C5)nc3c2F)c2c(Cl)cccc2c1 [Compound 58]

SMILES | GI50 (Ba/F3_KRAS^G12D cells) | Kd [1]
CN1CCC[C@H]1COc1nc(N2CC3CCC(C2)N3)c2cc(Cl)c(-c3cc(O)cc4ccccc34)c(F)c2n1 [Compound 2] | 0.5 to 5 µM | < 0.5 µM
